Reference: patent publication US20230172940A1, “METHODS OF EXTENDING LIFESPAN BY ADMINISTERING FERROPTOSIS INHIBITORS” (COLLABORATIVE MEDICINAL DEVELOPMENT, LLC, priority 2020, published 2023)

How the values were obtained:
[1] = test system: Hydroxynonenal (4-HNE) protein adducts; assay: Lipid peroxidation: 4-HNE protein adducts (immunoblot); assay type: in vivo, Caenorhabditis elegans; settings: qualitative
Description: Analysis of Hydroxynonenal (4-HNE) protein adducts was also used as a proxy for lipid peroxidation. Duplicate samples of 50 and 200 worms were collected and washed twice in S-basal^o pelleted by centrifugation and the supernatant discarded. These samples (^˜30 μL) were frozen in liquid-N2 and stored at −80° C. until needed. To each sample an 10 μL 4× Bolt LDS sample buffer (Invitrogen) and 3 μL TCEP (Invitrogen) was added and the sample heated to 95° C. for 10 min. Lysates were loaded onto NuPAGE™ 4-12% Bis-Tris acrylamide gels (1.0 mm^o 10-well^o Invitrogen)^o electrophoresed with MES running buffer and then transferred onto 0.45 μm PVDF membrane by electroblot using a Mini Blot module (Invitrogen). 4-HNE protein adducts were detected by an anti 4-HNE protein adduct antibody (1:2000^o AB5605^o Millipore) in Tris-buffer saline with 5% skim milk^o and ECL (GE Healthcare). The membranes were stripped using a 1× ReBlot Strong Antibody Stripping Solution (Merck) for 15 min^o reprobed for tubulin using an anti-Tubulin antibody (1:10^o000^oT6074^o Sigma-Aldrich).

Wild type (N2) = assay: Fertility analysis; assay type: in vivo, Caenorhabditis elegans; settings: treated from early adulthood/late L4; for Early fertility (first 24 hours): p>0.4
Description: Wild type (N2) adults (4-day post egg lay) were transferred to fresh plates for 30 minutes at 20° C. to establish a developmentally synchronous population. Adult nematodes were then removed, and eggs were then transferred to 25° C. As with the survival analyses, after 48 hours at 25° C., when worms were at the late L4/young adult stage individual nematodes were transferred to plates containing vehicle control, 250 μM SIH, or 200 μM Lip-1. After 24 hours, adult worms were transferred to fresh plates and transferred daily until the end of the fertile period. After allowing progeny to develop for 2 days at 20° C., they were then counted to determine daily and total fertility. Early fertility is determined by the number of progeny laid in the first 24-hour period. Differences in fertility (i.e. early and total reproductive output) were assessed using an ordinary one-way analysis of variance (ANOVA), followed by a Tukey's multiple comparison test (as implemented by Prism v7.0a, GraphPad Software).

OP50 E. coli = assay: Bacterial growth assay (OD600); assay type: cell-based, Escherichia coli; settings: after 12 hours, 37° C
Description: The effects of test compounds on growth of the OP50 E. coli feed was assayed using optical density at 600 nm (OD600). Using standard microtitre plates, replicate wells of 200 μL of sterile Luria broth were inoculated with 2 μL of an overnight OP50 culture in addition to the stated final concentrations of ampicillin (Amp), Lip-1 and SIH. OD600 measures were taken after 12 hours in an EnSpire (PerkinElmer) spectrophotometric plate reader preset to 37° C., with 30 sec of 200 rpm orbital shaking every 10 minutes.
Data was averaged across duplicate experiments, each with eight replicate wells per treatment where a baseline of Luria broth without an inoculate was subtracted.

C. elegans strain TJ1060 = assay: Parametric survival models (Weibull frailty), goodness of fit, combining replicates, meta-analysis; parameters: species or system Caenorhabditis elegans
Description: Parametric survival models with Weibull baseline hazards and Gamma frailty were fitted to replicate-specific data using the R package flexsurv. A likelihood ratio test was used to compare models that assume simple temporal rescaling to models that allow varying degrees of departure from temporal rescaling. The best model for each replicate was selected using a likelihood ratio test and the goodness of fit (GOF) of the best model is evaluated using a chi-square GOF test. To combine data across different replicates, we performed fixed-effect and random-effect meta-analyses for each parameter in the best model. Briefly, the fixed-effect meta-analysis estimates were derived using Inverse Variance Weighting (IVW) in which the estimates from each replicate were weighted by the inverse of their variance estimates. The meta-analysis estimates were then calculated simply as the weighted average of estimates from all replicates. The fixed-effect meta-analysis assumes that there is insignificant variation between the estimates of the same parameter across different replicates. The random-effect meta-analysis also derives the estimates by assigning weights to estimates from each replicate, but in this case the weights take into account the variation of estimates across replicates. […]

## Clc1cccc(CNC2=Nc3ccccc3NC23CCNCC3)c1 [Lip-1, N-[(3-chlorophenyl)methyl]-spiro[piperidine-4,2′(1′H)-quinoxalin]-3′-amine]
[1]
  increase in 4-HNE protein adducts with age: suppressed
Wild type (N2)
  lifetime reproductive output: small decrease
  Early fertility (first 24 hours): not altered
OP50 E. coli
  growth of OP50 E. coli (OD600): neither Lip-1 nor SIH suppressed bacterial growth
C. elegans strain TJ1060
  rate of mortality in the post-reproductive period (late-life): markedly reduced

## O=C(N/N=C/c1ccccc1O)c1ccncc1 [SIH, Salicylaldehyde isonicotinoyl hydrazone]
[1]
  increase in 4-HNE protein adducts with age: suppressed
Wild type (N2)
  lifetime reproductive output: no effect
  Early fertility (first 24 hours): not altered
OP50 E. coli
  growth of OP50 E. coli (OD600): neither Lip-1 nor SIH suppressed bacterial growth
C. elegans strain TJ1060; compared to control populations, rose precipitously in late life
  risk of death (hazard) in early adulthood: greatly reduced
